In PubChem BioAssay (NCI):
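Five concentrations, 48 hours, 96-well plates. At the GI50, growth is halved. The concentration for full growth arrest is given as TGI.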

Key:
Test in all cases: DTP human tumour cell line panel, 48 h
HCC-2998 colon = system: HCC-2998 colon
SR leukemia = system: SR leukemia
U251 CNS = system: U251 CNS
HOP-92 NSCLC = system: HOP-92 NSCLC
CCRF-CEM leukemia = system: CCRF-CEM leukemia
786-0 renal = system: 786-0 renal
MCF7 breast = system: MCF7 breast
SNB-19 CNS = system: SNB-19 CNS
RPMI-8226 leukemia = system: RPMI-8226 leukemia
MALME-3M melanoma = system: MALME-3M melanoma
HOP-62 NSCLC = system: HOP-62 NSCLC
ACHN renal = system: ACHN renal
HT29 colon = system: HT29 colon
EKVX NSCLC = system: EKVX NSCLC
HCT-116 colon = system: HCT-116 colon
K-562 leukemia = system: K-562 leukemia
SF-295 CNS = system: SF-295 CNS
NCI-H23 lung = system: NCI-H23 lung
SF-268 CNS = system: SF-268 CNS
T-47D breast = system: T-47D breast
OVCAR-5 ovarian = system: OVCAR-5 ovarian
UACC-62 melanoma = system: UACC-62 melanoma
SN12C renal = system: SN12C renal
HS 578T breast = system: HS 578T breast
MDA-MB-231 breast = system: MDA-MB-231 breast
SF-539 CNS = system: SF-539 CNS
HL-60(TB) leukemia = system: HL-60(TB) leukemia
NCI/ADR-RES ovarian = system: NCI/ADR-RES ovarian
UO-31 renal = system: UO-31 renal
MOLT-4 leukemia = system: MOLT-4 leukemia
SW-620 colon = system: SW-620 colon
A498 renal = system: A498 renal
NCI-H226 lung = system: NCI-H226 lung
KM12 colon = system: KM12 colon
COLO 205 colon = system: COLO 205 colon
SK-MEL-28 melanoma = system: SK-MEL-28 melanoma
SK-MEL-5 melanoma = system: SK-MEL-5 melanoma
UACC-257 melanoma = system: UACC-257 melanoma
NCI-H460 lung = system: NCI-H460 lung
LOX IMVI melanoma = system: LOX IMVI melanoma
SNB-75 CNS = system: SNB-75 CNS
BT-549 breast = system: BT-549 breast
PC-3 prostate = system: PC-3 prostate
M14 melanoma = system: M14 melanoma
SK-OV-3 ovarian = system: SK-OV-3 ovarian
A549 NSCLC = system: A549 NSCLC
SK-MEL-2 melanoma = system: SK-MEL-2 melanoma
MDA-MB-435 = system: MDA-MB-435
NCI-H522 lung = system: NCI-H522 lung
DU-145 prostate = system: DU-145 prostate
TK-10 renal = system: TK-10 renal
IGROV1 ovarian = system: IGROV1 ovarian
OVCAR-3 ovarian = system: OVCAR-3 ovarian
OVCAR-4 ovarian = system: OVCAR-4 ovarian
OVCAR-8 ovarian = system: OVCAR-8 ovarian
HCT-15 colon = system: HCT-15 colon
RXF 393 renal = system: RXF 393 renal
CAKI-1 renal = system: CAKI-1 renal

CCOC(=O)CNC(=O)c1ccccc1Nc1ccnc(C(F)(F)F)c1
GI50 (HCC-2998 colon): 71.3 µM
TGI (HCC-2998 colon): > 100 µM
GI50 (SR leukemia): 19 µM
TGI (SR leukemia): 57.8 µM
GI50 (U251 CNS): 34.3 µM
TGI (U251 CNS): > 62.1 µM
GI50 (HOP-92 NSCLC): 57.2 nM
TGI (HOP-92 NSCLC): 7.62 µM
GI50 (CCRF-CEM leukemia): 7.97 µM
TGI (CCRF-CEM leukemia): > 37.9 µM
GI50 (786-0 renal): 52.6 µM
TGI (786-0 renal): > 90 µM
GI50 (MCF7 breast): 38.8 µM
TGI (MCF7 breast): > 89.1 µM
GI50 (SNB-19 CNS): 34.2 µM
TGI (SNB-19 CNS): > 100 µM
GI50 (RPMI-8226 leukemia): 12.7 µM
TGI (RPMI-8226 leukemia): 35.1 µM
GI50 (MALME-3M melanoma): 34.1 µM
TGI (MALME-3M melanoma): > 88.8 µM
GI50 (HOP-62 NSCLC): 39.6 µM
TGI (HOP-62 NSCLC): > 69.6 µM
GI50 (ACHN renal): > 58.2 µM
TGI (ACHN renal): > 100 µM
GI50 (HT29 colon): 44.4 µM
TGI (HT29 colon): > 100 µM
GI50 (EKVX NSCLC): 30.6 µM
TGI (EKVX NSCLC): > 96 µM
GI50 (HCT-116 colon): 30.5 µM
TGI (HCT-116 colon): > 69.8 µM
GI50 (K-562 leukemia): 24 µM
TGI (K-562 leukemia): > 69.4 µM
GI50 (SF-295 CNS): 54.4 µM
TGI (SF-295 CNS): > 100 µM
GI50 (NCI-H23 lung): 31.5 µM
TGI (NCI-H23 lung): > 71.8 µM
GI50 (SF-268 CNS): 35.7 µM
TGI (SF-268 CNS): > 71.6 µM
GI50 (T-47D breast): 41.9 µM
TGI (T-47D breast): > 100 µM
GI50 (OVCAR-5 ovarian): > 51.1 µM
TGI (OVCAR-5 ovarian): > 100 µM
GI50 (UACC-62 melanoma): 22.4 µM
TGI (UACC-62 melanoma): > 61.2 µM
GI50 (SN12C renal): 36.6 µM
TGI (SN12C renal): > 79.4 µM
GI50 (HS 578T breast): 45.5 µM
TGI (HS 578T breast): > 100 µM
GI50 (MDA-MB-231 breast): 33.4 µM
TGI (MDA-MB-231 breast): > 73.1 µM
GI50 (SF-539 CNS): 28 µM
TGI (SF-539 CNS): > 100 µM
GI50 (HL-60(TB) leukemia): 33.2 µM
TGI (HL-60(TB) leukemia): > 100 µM
GI50 (NCI/ADR-RES ovarian): > 71.5 µM
TGI (NCI/ADR-RES ovarian): > 100 µM
GI50 (UO-31 renal): 24.4 µM
TGI (UO-31 renal): > 59.5 µM
GI50 (MOLT-4 leukemia): 17.7 µM
TGI (MOLT-4 leukemia): 54.3 µM
GI50 (SW-620 colon): 29.9 µM
TGI (SW-620 colon): > 74.4 µM
GI50 (A498 renal): 64 µM
TGI (A498 renal): > 100 µM
GI50 (NCI-H226 lung): > 100 µM
TGI (NCI-H226 lung): > 100 µM
GI50 (KM12 colon): 30.2 µM
TGI (KM12 colon): > 86 µM
GI50 (COLO 205 colon): 17.8 µM
TGI (COLO 205 colon): > 67.2 µM
GI50 (SK-MEL-28 melanoma): 28.1 µM
TGI (SK-MEL-28 melanoma): > 83.3 µM
GI50 (SK-MEL-5 melanoma): 14.8 µM
TGI (SK-MEL-5 melanoma): 40.4 µM
GI50 (UACC-257 melanoma): 68.7 µM
TGI (UACC-257 melanoma): > 100 µM
GI50 (NCI-H460 lung): 29.8 µM
TGI (NCI-H460 lung): > 68.1 µM
GI50 (LOX IMVI melanoma): 17.5 µM
TGI (LOX IMVI melanoma): 36.2 µM
GI50 (SNB-75 CNS): > 100 µM
TGI (SNB-75 CNS): > 100 µM
GI50 (BT-549 breast): 42 µM
TGI (BT-549 breast): > 100 µM
GI50 (PC-3 prostate): 25.4 µM
TGI (PC-3 prostate): > 95.5 µM
GI50 (M14 melanoma): 38.1 µM
TGI (M14 melanoma): > 74.9 µM
GI50 (SK-OV-3 ovarian): > 59.5 µM
TGI (SK-OV-3 ovarian): > 100 µM
GI50 (A549 NSCLC): > 53.5 µM
TGI (A549 NSCLC): > 100 µM
GI50 (SK-MEL-2 melanoma): 44.6 µM
TGI (SK-MEL-2 melanoma): > 72.4 µM
GI50 (MDA-MB-435): 36.9 µM
TGI (MDA-MB-435): > 100 µM
GI50 (NCI-H522 lung): 27.8 µM
TGI (NCI-H522 lung): > 70.5 µM
GI50 (DU-145 prostate): 46.9 µM
TGI (DU-145 prostate): 99.8 µM
GI50 (TK-10 renal): 41.6 µM
TGI (TK-10 renal): > 100 µM
GI50 (IGROV1 ovarian): 32.2 µM
TGI (IGROV1 ovarian): > 65.7 µM
GI50 (OVCAR-3 ovarian): 20.2 µM
TGI (OVCAR-3 ovarian): 56.9 µM
GI50 (OVCAR-4 ovarian): 43.7 µM
TGI (OVCAR-4 ovarian): > 100 µM
GI50 (OVCAR-8 ovarian): > 50.8 µM
TGI (OVCAR-8 ovarian): > 82.8 µM
GI50 (HCT-15 colon): > 54.6 µM
TGI (HCT-15 colon): > 100 µM
GI50 (RXF 393 renal): 31.3 µM
TGI (RXF 393 renal): > 64.4 µM
GI50 (CAKI-1 renal): 20.9 µM
TGI (CAKI-1 renal): > 62.5 µM
